Laboratory results reported in US5683987A, “Therapeutic oligonucleotides targeting the human MDR1 and MRP genes” (The Board of Regents of the University of Nebraska, priority 1995, dated 1997).
Where “and” joins values, the source holds several entries; their conditions need not be identical. Equal values may be shown once. Read-outs that look alike come from different tables or passages of the source.

Experiments:
[1] = system: 8226/Dox human myeloma cells; test: Sensitization of 8226/Dox cells to Vincristine by MDR-oligos in 5% oxygen; format: cell-based; settings: for IC50: read-out: IC50 dose
Protocol: (§1) As shown in this example, several oligos which target the MDR1 gene are able to sensitize multidrug-resistant cell lines to the cytotoxic effects of the chemotherapeutic agent Vincristine. Tumor cells were treated in vitro with 10 μM of the indicated oligo for 4 days at 37° C., then counted, dispensed into individual tubes, and pulsed with Vincristine at various doses (serial 5-fold dilutions) for 3 hrs. The cells were then washed and seeded into 96-well plates (quadruplicate replicates) for pulsing with tritiated thymidine 3 days later. Cells were harvested the next day (=4th day after drug treatment). Tritiated thymidine uptake was analyzed by liquid scintillation.

[2] = system: CEM/VLB10 human leukemia cells; test: Sensitization of CEM/VLB10 cells to Vincristine by MDR-oligos in 5% oxygen; format: cell-based; settings: for IC50: read-out: IC50 dose
Protocol: as §1

[3] = system: 8226/Dox human myeloma cells; test: Sensitivity of 8226/Dox cells to Vincristine with increasing time after Vincristine exposure; format: cell-based; settings: for IC50: Homo sapiens; for Relative Sensitization (fold increase) Day 5: Day 5 after Vincristine exposure; for Relative Sensitization (fold increase) Day 7: Day 7 after Vincristine exposure; for Relative Sensitization (fold increase) Day 9: Day 9 after Vincristine exposure
Protocol: as §1, with “Tumor cells were treated in vitro with 10 μM of the indicated oligo for 4 days at 37° C., then counted, dispensed into individual tubes, and pulsed with Vincristine at various doses (serial 5-fold dilutions) for 3 hrs.” left out
As shown in this example, it was determined that there was an increase in sensitivity of multidrug-resistant 8226/Dox human myeloma cells to Vincristine with increasing time of incubation following initial exposure to Vincristine. The experimental conditions were identical to those utilized in obtaining the data shown in Table 7, except that the present experiment had two additional time points.

8226/Dox cells [4] = test: Sensitization of 8226/Dox cells to Vincristine by an MRP-oligo and MDR-ODNs; format: cell-based, human; settings: for IC50: read-out: IC50 dose
Protocol: as §1
In this example, experimental conditions were identical to those utilized in obtaining the data in Example 2.

[5] = system: 8226/Dox4 human myeloma cells; test: Vincristine IC50 summary after MDR-oligo treatment; format: cell-based; settings: Homo sapiens, read-out: Vincristine IC50
Protocol: (§2) In vitro testing of MDR-Oligonucleotides was done on the multidrug-resistant (MDR+) RPMI-8226/Dox4 human multiple myeloma cell line (gift of Dr. William Dalton, Univ. Arizona Cancer Ctr., Tucson). Cells were incubated in vitro for 4 days at 37° C. with MDR-oligos at 0.2 μM final concentration; pulsed 18 hr with serial 5-fold dilutions of chemotherapeutic drug (vincristine) from 1×10^-4 M to 2×10^-10 M. Cells were then washed, and incubated for an additional 4 days. Tritiated thymidine (^3 H-TdR) was added for last 18 hr to measure status of cellular proliferation. Controls included MDR^+ 8226 cells similarly treated with vincristine but pretreated either with (a) control ODNs, or (b) culture medium only.

8226/Dox4 cells = test: Parsimonious regression model estimates of count and Vincristine IC50; format: cell-based, human; settings: Homo sapiens, read-out: Estimated IC50
Protocol: as §2
The following mathematical/statistical model was used to analyze the effects of oligos and various drug treatments on targeted tumor cells in these studies. The model is based on experiments which generally involve treatment of tumor cells with one of several ODNs or media only, and with several dose levels of an anti-cancer agent (such as, for example, vincristine (VCR)) or media only. Analysis goals were to model the relationship of cell kill to the dose of VCR (for example), and to compare the effects of the various ODNs.
This final model contained 10 regressor variables.
Various estimates of parameters from the parsimonious model are shown in TABLE 13, which contains the model estimate of the count for each ODN with media only; differences here (when compared to "media only" [no ODN]) reflect the cell kill associated with the ODN alone. TABLE 13 also contains an estimate of IC50 values, the dose of vincristine (VCR) which is estimated to produce an expected count which is exactly half that expected with "media only" [no VCR]. While formal statistical comparisons of the IC50 values of the various ODNs is not possible, an ordering of the ODNs by estimated IC50 values is possible.

8226/Dox cells [6] = test: Sensitization of 8226/Dox cells to VCR by MDR-aptameric oligonucleotides; format: cell-based, human; settings: for Fold Increase in Drug Sensitization: compared to media control
8226/Dox cells [7] = test: Sensitization of 8226/Dox cells to doxorubicin by MDR-oligos (tritiated thymidine uptake); format: cell-based, human; settings: for IC50: read-out: IC50 dose
Protocol: Multidrug resistant tumor cells were incubated with 15 μM of OL(6)mdr oligo, Cohen(1)mdr oligo or a negative-control (HIV-2) oligo for 4 days at 37° C. in a humidified incubation chamber. Varying doses (5-fold serial dilutions) of doxorubicin (from 1×10^-5 M to 1×10^-8 M) were then added to the culture wells after the cells had been subcultured into media without oligos; cells were then incubated in the same culture environment for an additional three days. Radiolabeled (tritiated) thymidine was added to all cultures for 24 hr before harvest. Each data point is the mean of 4 replicates.

[8] = system: A427 human non-small-cell lung adenocarcinoma cell line; test: Sensitization of A427 lung cancer cells to etoposide by MRP-oligos; format: cell-based
Protocol: The human non-small-cell lung adenocarcinoma cell line A427 was treated with oligos at various concentrations for 4 days in vitro. The cells then were pulsed with various concentrations of etoposide (range 1.6×10^-4 to 1×10^-6 M) for 3 hrs. Next, cells were trypsinized and seeded by volume into 96-well plates with 12 replicates per treatment condition. Three days later, tritiated thymidine was added and the cells harvested the next day.

[9] = system: RPMI-8226/Dox4 human multiple myeloma cell line; test: Relative activity of MRP-ODNs (summary); format: cell-based; design: key: --: no effect; +: weak positive effect; +++++: strong positive effect
[10] = Vincristine IC50 after 4 days with 10 μM oligo, 5% oxygen
[11] = to Vincristine, 10 μM oligo, 5% oxygen

CC[C@]1(O)C[C@H]2CN(CCc3c([nH]c4ccccc34)[C@@](C(=O)OC)(c3cc4c(cc3OC)N(C=O)[C@H]3[C@@](O)(C(=O)OC)[C@H](OC(C)=O)[C@]5(CC)C=CCN6CC[C@]43[C@@H]65)C2)C1 [Vincristine, reference compound]
IC50 ([1]; Homo sapiens): 450 nM | IC50 ([2]; Homo sapiens): 10000 nM | IC50 ([3]; 120 h, read-out: IC50 Value on Day 5): 440 nM | IC50 ([3]; 168 h, read-out: IC50 Value on Day 7): 7000 nM | IC50 ([3]; 216 h, read-out: IC50 Value on Day 9): 550000 nM | IC50 (8226/Dox cells [4]; Homo sapiens): 1100 nM | IC50 [5]: 12000 nM | IC50 (8226/Dox4 cells): 12800 nM | IC50 (8226/Dox cells [6]; Homo sapiens, VCR, Media (no oligo)): 40000 nM

COc1cccc2c1C(=O)c1c(O)c3c(c(O)c1C2=O)C[C@@](O)(C(=O)CO)C[C@@H]3O[C@H]1C[C@H](N)[C@H](O)[C@H](C)O1 [doxorubicin, reference compound]
IC50 (8226/Dox cells [7]; Homo sapiens): 650 nM

MDR-APT-2: MDR-aptameric oligonucleotide, SEQ ID NO 89: TTCGCCTGATTTCCGCCTCCCGTCT (TTCGCCTGATTTCCGCCTCCCGTCT; chemistry not given here)
Fold Increase in Drug Sensitization (8226/Dox cells [6]): 20,000 fold

MDR-APT-3: MDR-aptameric oligonucleotide, SEQ ID NO 90: CGGTCCGTTA TGTTCCTG (CGGTCCGTTATGTTCCTG; chemistry not given here)
Fold Increase in Drug Sensitization (8226/Dox cells [6]): 5,714 fold

MDR-APT-4: MDR-aptameric oligonucleotide, SEQ ID NO 91: ACTCGCCTCCCACGTAGTGCTT (ACTCGCCTCCCACGTAGTGCTT; chemistry not given here)
Fold Increase in Drug Sensitization (8226/Dox cells [6]): > 40,000 fold

OL(6)mdr: SEQ ID NO 1: CCCACGCCCC GGCGCTGTTC (CCCACGCCCCGGCGCTGTTC; chemistry not given here)
IC50 (8226/Dox cells [7]; doxorubicin IC50 after 4 days with 15 μM oligo, tritiated thymidine uptake): 180 nM | Relative sensitization (fold increase) (8226/Dox cells [7]; to doxorubicin, 15 μM oligo, vs medium only): 3.6 fold increase | IC50 [1, 10]: 220 nM | Relative sensitization (fold increase) [1, 11]: 2.5 fold increase | IC50 [2, 10]: 120 nM | Relative sensitization (fold increase) [2, 11]: 83 fold increase | Relative Sensitization (fold increase) Day 5 ([3]; oligo 2 μM): 1.6 fold increase | Relative Sensitization (fold increase) Day 7 ([3]; oligo 2 μM): 3.5 fold increase | Relative Sensitization (fold increase) Day 9 ([3]; oligo 2 μM): 61 fold increase | Relative Sensitization (fold increase) Day 5 ([3]; oligo 10 μM): 1.8 fold increase | Relative Sensitization (fold increase) Day 7 ([3]; oligo 10 μM): 15.9 fold increase | Relative Sensitization (fold increase) Day 9 ([3]; oligo 10 μM): 550 fold increase | Etoposide (VP-16) Relative Sensitization (fold increase) ([8]; oligo 1 μM): 0 fold increase | Etoposide (VP-16) Relative Sensitization (fold increase) ([8]; oligo 2.5 μM): 0 fold increase | Etoposide (VP-16) Relative Sensitization (fold increase) ([8]; oligo 5.0 μM): 1.2 fold increase | Etoposide (VP-16) Relative Sensitization (fold increase) ([8]; oligo 10 μM): 1.6 fold increase

OL(8)MRP: SEQ ID NO 64: GCGGGATGAT GATGGCGGCG (GCGGGATGATGATGGCGGCG; chemistry not given here)
Etoposide (VP-16) Relative Sensitization (fold increase) ([8]; oligo 2.5 μM): 2.0 fold increase | Etoposide (VP-16) Relative Sensitization (fold increase) ([8]; oligo 5.0 μM): 3.6 fold increase | Etoposide (VP-16) Relative Sensitization (fold increase) ([8]; oligo 10 μM): 18 fold increase and 18.0 fold increase | IC50 (8226/Dox cells [4]; Vincristine IC50 after oligo treatment, conditions as Example 2): 55 nM | Relative sensitization (fold increase) (8226/Dox cells [4]; to Vincristine, vs medium only): 20 fold increase | Relative Activity [9]: +++++
